Assay results from patent publication US7339042B2, “Gene delivery to tumors” (University of Florida Research Foundation, Inc., priority 2003, dated 2008).
Entries after “also recorded” stand apart in the source; their conditions may differ. No end group written: not given here.

Assays:
rat cerebral arteries [1] = assay: Cell viability staining of arteries (propidium iodide, H3334) after peptide; type: cell-based; conditions: after treatment with peptide
Description: No PI statined smooth muscle cell nuclei were observed.
(§1) Effect of peptide on endothelial and smooth muscle function was evaluated by histamine (0.3 and 1 μM) and bradykinin (0.5 μM) (endothelium-dependent vasodilators) and 16 and 60 mM KCl (results in dilation and constriction of arteries by hyperpolarizing and depolarizing smooth muscle, respectively). These drug solutions were added to the superfusate and applied to the arteries extraluminally for 10 to 15 min before and after intraluminal perfusion with peptides. Effects of these agents were expressed as percent change in myogenic tone (decrease for dilators and increase for constrictors). Experiments were concluded by exposing the arteries to calcium free PCSF to obtain the passive diameter. Cell viability was determined by adding H3334 (Hoechst viability stain, final concentration 1 μM) and propidium iodide (final concentration 1 μM) to the arteriograph after the peptide incubation. Fluorescent micrographs were taken of the vessels after incubation with peptides and following addition of the vital stains using Till Photonics imaging system (Martinsried, Germany).

[2] = test system: endothelial cells and smooth muscle cells of rat cerebral arteries; assay: Uptake of fluorescent peptides by pressure-mounted rat cerebral arteries; type: cell-based
Description: Tat-P16 peptides were prepared and labeled with fluorescein for use in uptake studies using intact blood vessels isolated from rat brain. Blood vessels were dissected from rat brain and stabilized in an isolated perfusion system in which vessels were attached on either end to catheters and placed under physiological pressure. Following a 10 minute perfusion of the isolated vessels with flurorescent Tat-P16 peptide (1 μM), vessels were examined for uptake of the peptides. […] Within the endothelial cells, the labeled peptides were seen to be localized to the cell nuclei, further confirming uptake of the peptides by the cells.
The peptides are fairly labile in the media and approximately 50% are degraded upon incubation at 37° C. in complete media (qualitative analysis by PAGE) after 1 hour. […] Uptake of these peptides and cell killing activity was tested in a 3 dimensional organ culture using rat cerebral arteries cultured under physiological pressure and flow. A segment of the rat cerebral artery is surgically removed and placed in ringer's solution. Using a surgical stereoscope, the blood vessel is tied at either end to two cannulas on a teflon stage. Ringer's solution is perfused through the lumen of the vessel at a constant rate that maintains physiologic hydrostatic pressure. The fluorescent peptide was introduced intraluminally by perfusing a 1 μM solution of peptide through the lumen over a 10 minute period.
Rats were anesthetized by intraperitoneal injection of pentobarbital sodium (160 mg/kg) and killed by decapitation. The brain was removed and placed in an ice-cold oxygenated physiological cerebrospinal fluid (PCSF, see below for composition). Cerebellar arteries were isolated and mounted in an arteriograph as described previously (Knot and Nelson 1998). The arteriograph was placed on an inverted microscope and the artery was visualized with a monochrome CCD camera coupled to a calibrated video caliper system to measure arterial diameter. The arteries were slowly pressurized to 70 mmHg under no flow conditions using a pressure servo-null system (Living Systems Inc., Burlington Vt.), and warmed to 37° C. while being continuously superfused (5 ml/min) with PCSF bubbled with 21% O2, 5% CO2, 74% N2 (pH 7.35-7.40 in the bath). […] Myogenic tone is calculated by the following equation: Myogenic tone=(Dp−Da)/Dp×100
(§2) In some experiments, the arterial segments were denuded of endothelium by passing an air bubble through the lumen, thus exposing the smooth muscle cells to luminally administered peptides. Constriction to pressure and 60 mM KCl and dilation of arteries with myogenic tone to 16 mM KCl were used as benchmarks of functional arteries. Peptide containing PCSF was perfused intraluminally at an inlet pressure of 70 mmHg with the outlet open, for 20 min and then perfused with normal PCSF. This procedure ensures a 20 min of exposure of the arteries to the peptide.

rat cerebral arteries [3] = assay: Vasodilation and vasoconstriction response of rat cerebral arteries before and after peptide; type: cell-based; conditions: after vs before intraluminal peptide
Description: The blood vessels were put in culture described above and perfused with buffer of the same composition as cerebrospinal fluid. Vessel diameter was measured before and after administration of each reagent. 3 μM of each peptide was perfused through for 10 minutes followed by a 10 minute wash through. Vasoconstriction and vasodilation were determined for each vessel before peptide was applied. Perfusion was continued until the vessels relaxed to their original diamter (approximately 30 minutes). The vasoconstriction and vasodilation reponse was remeasured after the 10 minute wash through. The 60 mM KCl and 16 mM KCl conditions are […], respectively. Histamine and Bradykinin are endothelial cell vasodilators.
as §2, §1

[4] = test system: HUVEC attachment to vitronectin coated plates; conditions: read-out: IC50 for inhibiting HUVEC attachment to vitronectin coated plates; cited from earlier work
Flk-1 = Flk-1 (Homo sapiens, UniProt P35968); conditions: cited from earlier work
T98G cells = assay: Fusion peptide cell killing, propidium iodide/FACS viability, T98G cells; type: cell-based, human; conditions: 10 μM peptide, 1 hr
Description: (§3) Other experiments were performed using two glioma cell lines, i.e., T98G and RG2. 1×10^6 cells per well were incubated in 6-well plates with peptides in complete media for 1 hr. Cells were removed from the plate using a cell stripper and the percentage of viable cells was determined by staining with propidium iodide and analyzing by fluorescence activated cell sorting (FACS).
(§4) Cell viability studies were performed by plating the cells under the same conditions as the uptake studies. Cells were incubated with fluorescent peptides for 1 hr at 37° C. The cells were removed from the plate using cell striper. They were labeled with propidium iodide and fluorescein-AM. Percent PI positive cells were determined by FACS.

RG2 cells [5] = assay: Fusion peptide cell killing, propidium iodide/FACS viability, RG2 cells; type: cell-based, rat
Description: as §3
There are 4 conserved amino acid differences between the rat and human CDKI sequence. Both sequences were attached to Tat and tested for cell killing activity in the rat glioma RG2 cells. Also the effect of orientation of the Tat and CDKI domains were tested. RG2 cells were plated on 6 well plates at approximately 70% confluency. Each of the peptides was added to the wells with increasing concentration. After 1 hr, cells were removed from the plates, washed 2× with PBS, stained with propidium iodide and analyzed by FACS for viable cells.
as §4
The cytotoxicity of the chimeric peptides was characterized using a cell viability assay. Peptides were added to cells at a fixed concentration. After a 30-minute incubation, cells were removed from the plate, stained with propidium iodide and the % positive cells were determined by FACS (fluorescent activated cell scanning). The test conditions were Tat, ANT, Tat-P14ARF, ANT-P14ARF and P14ARF. T98G cells were tested along with RG2 cells and A172 cells.

A172 cells = assay: Fluorescein peptide uptake by A172 cells, fluorescence microscopy; type: cell-based, human
Description: (§5) For fluorescent microscopy studies cells were plated on 2 chamber cover slips at a density of 1×10^4 cells/chamber. Cells were incubated with […] peptide for 30 minutes in completed media, washed with PBS 3× and imaged using a Nikon Axiophot inverted fluorescent microscope. Images were taken using a Spot CCD camera.
Synthetic peptides derived from HIV Tat (Tat) and the Drosophila antennaepedia homeodomain (ANT) were tested for cell uptake by A172 cells (human glioblastomas). The peptides were labeled at the N-terminus with fluorescein. Cells were incubated with 30 uM peptide at 37° C. in serum containing media. Fluorescent micrographs were taken after 1 hr incubation at 37° C. […] The size of the peptide was increased by added an Mdm-2 binding domain derived from P14ARF. This domain was added to the C-terminus of the Tat and ANT peptides. The P14ARF domain was also placed at the N-terminus followed by the Tat peptide. All the peptides were labeled at the N-terminus with fluorescein and cell incubations similar to the Tat and ANT peptides were tested for cellular uptake. […] Both the bright field and fluorescent micrographs show altered cell morphology.

RG2 cells [6] = assay: Fluorescein peptide uptake by RG2 cells, fluorescence microscopy; type: cell-based, rat
Description: as §5
Similar observations were obtained for all the peptides in another human glioblastoma cell line, T98G.

[7] = test system: T98G cells, RG2 cells and A172 cells; assay: Cell viability assay of chimeric peptides in three cell types; type: cell-based, human and rat; conditions: fixed concentration, 30-minute incubation
Description: Synthetic peptides labeled with an N-terminal fluorescein were synthesized to test the ability of a shuttle domain to enter brain tumor and endothelial cells. The amino acid sequences for the shuttle domain was derived from HIV Tat amino acid 47 to 56 ([…] SEQ ID NO:23)(Robert-Guroff et al., J. Virol. 64:3391-3398, 1990) to which AGGG was added to the N-terminus, and the antennapedia homeodomain from drosophila (ANT) ([…] SEQ ID NO:24) (Astriab-Fisher et al., Pharm. Res., 19:744-754, 2002). A synthetic peptide (PTD-5) reported to have similar properties as Tat and ANT was also tested (Mai J. C. et al, Cancer Res. 2001; 61: 7709-7712.). Uptake was tested in two human glioblastoma cell lines and a rat glioma cell line, the latter being used for the rat brain tumor model. A 1 μM concentration of each peptide was added to 10^6 cells in a 6 well plate. […] The Tat and ANT peptides were doubled in length by the addition of […] (SEQ ID NO: 25), amino acids 42 to 55 from a human cyclin-dependent kinase inhibitor 2A (melanoma, p16, inhibits CDK4) (CDKI), transcript variant 4, mRNA (accession no. NM_058195). […]
The cytotoxicity of the chimeric peptides was characterized using a cell viability assay. […] After a 30-minute incubation, cells were removed from the plate, stained with propidium iodide and the % positive cells were determined by FACS (fluorescent activated cell scanning). […]

[8] = test system: two human glioblastoma cell lines and a rat glioma cell line; assay: Fluorescein peptide uptake, fluorescence microscopy, three glioma lines; type: cell-based; conditions: 1 μM peptide, 10^6 cells, all three cell types
Description: Synthetic peptides labeled with an N-terminal fluorescein were synthesized to test the ability of a shuttle domain to enter brain tumor and endothelial cells. The amino acid sequences for the shuttle domain was derived from HIV Tat amino acid 47 to 56 ([…] SEQ ID NO:23)(Robert-Guroff et al., J. Virol. 64:3391-3398, 1990) to which AGGG was added to the N-terminus, and the antennapedia homeodomain from drosophila (ANT) ([…] SEQ ID NO:24) (Astriab-Fisher et al., Pharm. Res., 19:744-754, 2002). A synthetic peptide (PTD-5) reported to have similar properties as Tat and ANT was also tested (Mai J. C. et al, Cancer Res. 2001; 61: 7709-7712.). Uptake was tested in two human glioblastoma cell lines and a rat glioma cell line, the latter being used for the rat brain tumor model. A 1 μM concentration of each peptide was added to 10^6 cells in a 6 well plate. […] The Tat and ANT peptides were doubled in length by the addition of […] (SEQ ID NO: 25), amino acids 42 to 55 from a human cyclin-dependent kinase inhibitor 2A (melanoma, p16, inhibits CDK4) (CDKI), transcript variant 4, mRNA (accession no. NM_058195). This domain binds MDM2 and inhibit ubiquination of P53, a tumor suppressor protein. […] Only the combination of Tat-CDKI was toxic to the cells, 65% killing for T98G and 61% killing for RG2 cells. […] Similar results were obtained with A172 cells. […]

[9] = test system: endothelial cells and smooth muscle cells of rat cerebral arteries; assay: Uptake of fluorescent peptides by pressure-mounted rat cerebral arteries; type: cell-based; conditions: extraluminal addition
HIV = conditions: cited from earlier work
[10] = intraluminal perfusion of fluorescent peptide

Chain of Flk-1 (P35968 20-1356, species assumed): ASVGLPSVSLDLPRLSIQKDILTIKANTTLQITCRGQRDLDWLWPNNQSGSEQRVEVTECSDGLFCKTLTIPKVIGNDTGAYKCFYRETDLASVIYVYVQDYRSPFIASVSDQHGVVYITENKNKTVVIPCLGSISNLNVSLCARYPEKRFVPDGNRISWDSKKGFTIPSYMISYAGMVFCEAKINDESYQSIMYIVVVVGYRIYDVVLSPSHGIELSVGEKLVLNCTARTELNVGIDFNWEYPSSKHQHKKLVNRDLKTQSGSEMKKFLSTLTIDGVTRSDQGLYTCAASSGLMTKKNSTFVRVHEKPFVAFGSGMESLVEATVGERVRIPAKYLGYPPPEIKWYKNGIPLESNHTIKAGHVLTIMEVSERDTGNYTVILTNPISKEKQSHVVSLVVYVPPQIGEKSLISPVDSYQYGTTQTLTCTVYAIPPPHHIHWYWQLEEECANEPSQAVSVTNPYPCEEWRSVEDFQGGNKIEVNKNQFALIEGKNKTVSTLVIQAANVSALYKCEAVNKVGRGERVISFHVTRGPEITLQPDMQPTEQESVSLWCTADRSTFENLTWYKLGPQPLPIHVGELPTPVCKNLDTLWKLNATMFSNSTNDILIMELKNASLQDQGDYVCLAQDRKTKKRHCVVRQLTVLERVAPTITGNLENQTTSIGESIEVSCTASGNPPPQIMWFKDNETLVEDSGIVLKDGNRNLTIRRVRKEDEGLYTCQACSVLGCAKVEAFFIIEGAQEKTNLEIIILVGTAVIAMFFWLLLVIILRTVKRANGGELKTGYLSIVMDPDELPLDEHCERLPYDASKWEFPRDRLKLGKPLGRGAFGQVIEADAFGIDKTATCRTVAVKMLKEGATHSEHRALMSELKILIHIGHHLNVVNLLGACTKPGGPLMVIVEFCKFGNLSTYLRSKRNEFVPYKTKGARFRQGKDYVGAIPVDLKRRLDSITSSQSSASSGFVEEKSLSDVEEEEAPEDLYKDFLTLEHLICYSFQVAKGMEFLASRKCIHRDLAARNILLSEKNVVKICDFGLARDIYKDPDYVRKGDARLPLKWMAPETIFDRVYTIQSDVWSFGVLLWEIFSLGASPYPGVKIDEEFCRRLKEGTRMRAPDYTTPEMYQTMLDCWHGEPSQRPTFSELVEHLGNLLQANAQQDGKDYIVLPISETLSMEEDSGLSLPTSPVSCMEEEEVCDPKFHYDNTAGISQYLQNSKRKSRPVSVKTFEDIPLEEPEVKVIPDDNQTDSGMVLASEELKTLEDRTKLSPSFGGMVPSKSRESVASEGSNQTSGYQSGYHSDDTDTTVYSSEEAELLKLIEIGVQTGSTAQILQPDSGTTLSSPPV

With “AGGGYGRKKRRQRRRMGRRFVVTVRIRRT [Tat-rat P14ARF]” as the substance, how does the “propidium iodide staining of blood vessels” value (rat cerebral arteries [1]) read?
The value was “only the endothelial cells were affected”.

What about the “morphology of the endothelial cells” value ([2]; after intraluminal exposure) of the same substance?
The value was “morphology of the endothelial cells was altered”.

What about the “labeling/uptake by endothelial cells” value [2, 10] of the same substance?
The value was “restriction of labeling to the endothelial cells”.

What about the “endothelium-dependent dilation to histamine and bradykinin” value (rat cerebral arteries [3]) of the same substance?
Its value is “inhibition of vasodilation”.

And the “smooth muscle response to 60 and 16 mM KCl” value (rat cerebral arteries [3])?
The value was “no effect”.

With “CDMRGDMFC [αvβ3 integrin binding peptide]” as the substance, how does the IC50 [4] read?
Its IC50 is 10 µM.

With HTMYYHHYQHHL [Flk-1 binding peptide] as the substance, how does the IC50 (Flk-1) read?
Its IC50 is ~100 µM.

For MVRRFLVTLRIRRA [P14ARF], which “% killing (toxicity)” value (T98G cells) is on record?
Its value is “no toxicity”.

And the “% killing (toxicity)” value (RG2 cells [5]; 10 μM peptide, 1 hr)?
The value was 22%.

And the “reduction in cell viability” value (RG2 cells [5]; 30-minute incubation)?
Its value is 22%.

And the “endothelium-dependent dilation to histamine and bradykinin” value (rat cerebral arteries [3])?
The value was “responsive to all stimuli”.

And the “smooth muscle response to 60 and 16 mM KCl” value (rat cerebral arteries [3])?
The value was “responsive to all stimuli”.

With “MVRRFLVTLRIRRAAGGGYGRKKRRQRRR [P14ARF-Tat]” as the substance, how does the “staining pattern (cell uptake)” value (A172 cells; 30 uM peptide, 1 hr, 37° C., serum containing media) read?
Its value is “nuclear staining”.

And the cell density (A172 cells; A172 cells, 1-hour incubation)?
Its cell density is “reduced cell density”.

What about the IC50 (RG2 cells [5]; dose response 1 μM to 10 μM) of the same substance?
The IC50 was 3 µM.

And the cell density (RG2 cells [6])?
Its cell density is “reduced cell density compared to TatP14ARF”.

What about the “staining pattern (cell uptake)” value (RG2 cells [6]) of the same substance?
The value was “nuclear staining”.

Which “fluorescent intensity (degree of cell uptake)” value (A172 cells; 30 uM peptide, 1 hr, 37° C.) does the source give for “RQIKIWFQNRRMKWKK [ANT, membrane permeability domain alone, control peptide]” here?
The value was “greater for the ANT peptide than the Tat peptide”.

And the “labeling/uptake by endothelial cells” value [2, 10]?
Its value is “restriction of labeling to the endothelial cells; also recorded: cytoplasmic staining of the endothelial cells”.

And the “labeling/uptake by smooth muscle cells” value [2, 10]?
The value was “did not label the smooth muscle cells”.

And the cells killed [7]?
Its cells killed is “No impact on cell viability”.

What about the “fluorescence labeling of cells (uptake)” value [8] of the same substance?
The value was “stained the cytoplasm”.

And the “labeling of smooth muscle cells” value [9]?
Its value is “able to label the smooth muscle cells”.

Which “staining pattern (cell uptake)” value (RG2 cells [6]) does the source give for “RQIKIWFQNRRMKWKK-MVRRFLVTLRIRRA [ANT-P14ARF]” here?
The value was “intracellular punctate staining”.

Which “IC50 for inhibiting HIV” value (HIV) does the source give for RRNalCYCitKdEPYRCitCR [CXCR4 peptide] here?
Its value is “in the nM range”.
